Assay results published in the supplement of paper PMC10307832.

Experiments:
Assay in all cases: relative viability (nuclei count vs DMSO), 5 days (fraction); higher = more cells survive
IPA-3 + Foretinib = compound: C1=CC=C2C(=C1)C=CC(=C2SSC3=C(C=CC4=CC=CC=C43)O)O [IPA-3] + COc1cc2c(Oc3ccc(NC(=O)C4(C(=O)Nc5ccc(F)cc5)CC4)cc3F)ccnc2cc1OCCCN1CCOCC1 [Foretinib] (partner 0.25 µM)
How it was run: (§1)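 Each reported value is a median over duplicate plates. It expresses relative viability: treated-well nuclei count divided by vehicle-well nuclei count. Lung cancer cell lines in 1536-well plates were dosed by pin tool a day after seeding, alone with one drug or with a fixed anchor-drug dose plus five library-drug doses (not always all listed) in √10 steps, and nuclei were counted after 5 days.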

Doramapimod + Foretinib = compound: Cc1ccc(-n2nc(C(C)(C)C)cc2NC(=O)Nc2ccc(OCCN3CCOCC3)c3ccccc23)cc1 [Doramapimod] + COc1cc2c(Oc3ccc(NC(=O)C4(C(=O)Nc5ccc(F)cc5)CC4)cc3F)ccnc2cc1OCCCN1CCOCC1 [Foretinib] (partner 0.25 µM)
How it was run: as §1

RAF265 + Bortezomib = compound: Cn1c(Nc2ccc(C(F)(F)F)cc2)nc2cc(Oc3ccnc(-c4ncc(C(F)(F)F)[nH]4)c3)ccc21 [RAF265] + CC(C)C[C@H](NC(=O)[C@H](Cc1ccccc1)NC(=O)c1cnccn1)B(O)O [Bortezomib] (partner 0.002 µM)
How it was run: as §1

RAF265 + Luminespib = compound: Cn1c(Nc2ccc(C(F)(F)F)cc2)nc2cc(Oc3ccnc(-c4ncc(C(F)(F)F)[nH]4)c3)ccc21 [RAF265] + CCNC(=O)c1noc(-c2cc(C(C)C)c(O)cc2O)c1-c1ccc(CN2CCOCC2)cc1 [Luminespib] (partner 0.01 µM)
How it was run: as §1

Cell Line | relative viability (IPA-3 + Foretinib; first compound 0.2 µM) | relative viability (IPA-3 + Foretinib; first compound 0.6325 µM) | relative viability (IPA-3 + Foretinib; first compound 2 µM) | relative viability (IPA-3 + Foretinib; first compound 6.325 µM) | relative viability (IPA-3 + Foretinib; first compound 20 µM) | relative viability (Doramapimod + Foretinib; first compound 0.02 µM) | relative viability (Doramapimod + Foretinib; first compound 0.06325 µM) | relative viability (Doramapimod + Foretinib; first compound 0.2 µM) | relative viability (Doramapimod + Foretinib; first compound 0.6325 µM) | relative viability (Doramapimod + Foretinib; first compound 2 µM) | relative viability (RAF265 + Bortezomib; first compound 0.01 µM) | relative viability (RAF265 + Bortezomib; first compound 0.03162 µM) | relative viability (RAF265 + Bortezomib; first compound 0.1 µM) | relative viability (RAF265 + Bortezomib; first compound 0.3162 µM) | relative viability (RAF265 + Bortezomib; first compound 1 µM) | relative viability (RAF265 + Luminespib; first compound 0.01 µM) | relative viability (RAF265 + Luminespib; first compound 0.03162 µM) | relative viability (RAF265 + Luminespib; first compound 0.1 µM) | relative viability (RAF265 + Luminespib; first compound 0.3162 µM) | relative viability (RAF265 + Luminespib; first compound 1 µM)
EMC-BAC-2 | 1.07 | 1 | 1.07 | 1.01 | 1.22 | 0.999 | 1.02 | 1.09 | 1.23 | 1 | 1.07 | 1 | 1.08 | 1.05 | 0.351 | 1.2 | 0.998 | 1.01 | 0.819 | 0.357
NCI-H647 | 1.36 | 1.26 | 1.08 | 1.03 | 1.12 | 0.903 | 1.07 | 1.25 | 1.29 | 1.16 | 0.949 | 0.806 | 0.686 | 0.58 | 0.426 | 0.256 | 0.103 | 0.171 | 0.153 | 0.0987
LXF-289 | 1 | 0.919 | 0.993 | 1.01 | 1.11 | 0.955 | 1.04 | 0.999 | 0.955 | 0.928 | 0.996 | 0.988 | 0.969 | 0.763 | 0.796 | 0.736 | 0.6 | 0.699 | 0.534 | 0.357
LOU-NH91 | 0.955 | 0.861 | 0.942 | 0.916 | 1.07 | 1.01 | 0.938 | 1.02 | 1.07 | 0.681 | 0.542 | 0.465 | 0.521 | 0.596 | 0.521 | 0.349 | 0.323 | 0.373 | 0.349 | 0.328
NCI-H23 | 1.03 | 1.02 | 0.971 | 1 | 1.17 | 0.952 | 1.05 | 0.947 | 1.05 | 0.95 | 1.21 | 0.937 | 0.606 | 0.621 | 0.353 | 0.22 | 0.225 | 0.221 | 0.212 | 0.221
NCI-H1993 | 0.833 | 0.654 | 0.813 | 0.776 | 0.728 | 0.844 | 0.759 | 0.808 | 0.778 | 0.68 | 1.06 | 0.941 | 1.09 | 1.01 | 0.795 | 0.852 | 0.75 | 0.9 | 1.42 | 0.774
HCC-827 | 1.04 | 1.04 | 1.08 | 0.952 | 0.947 | 1.07 | 1.06 | 1.13 | 1.04 | 0.703 | 1.1 | 1.08 | 1.08 |  | 0.869 | 0.837 | 0.652 | 0.74 |  | 0.132
NCI-H650 | 1.11 | 0.97 | 1.11 | 1.03 | 1.2 | 1.07 | 1.12 | 1.18 | 1.08 | 1.03 | 0.836 | 0.781 | 0.793 | 0.539 | 0.32 | 0.803 | 0.785 | 0.834 | 0.497 | 0.339
CAL-12T | 1.16 | 1.01 | 1.12 | 0.976 | 1.14 | 1.11 | 1.15 | 1.03 | 1.1 | 0.983 | 1.06 | 0.834 | 0.836 | 0.476 | 0.64 | 0.238 | 0.426 | 0.341 | 0.491 | 0.0919
NCI-H838 | 1.22 | 1 | 1.1 | 1.03 | 1.14 | 1.01 | 0.993 | 1.08 | 1.21 | 1.01 | 0.784 | 0.899 | 0.788 | 0.841 | 0.572 | 0.284 | 0.226 | 0.344 | 0.309 | 0.288
NCI-H2228 | 0.979 | 0.805 | 0.842 | 1.07 | 1.22 | 0.723 | 0.87 | 0.825 | 0.764 | 0.723 | 0.968 | 0.82 | 0.887 | 0.412 | 0.42 | 0.191 | 0.118 | 0.186 | 0.126 | 0.0971
RERF-LC-KJ | 1.02 | 0.913 | 0.868 | 0.847 | 1.04 | 0.87 | 0.955 | 0.884 | 0.9 | 0.869 | 1.17 | 1.16 | 1.07 | 1.03 | 0.761 | 1.34 | 1.22 | 1.08 | 0.763 | 0.713
NCI-H661 | 1.01 | 0.988 | 0.995 | 0.964 | 0.997 | 1.05 | 1 | 1.02 | 1.04 | 0.989 | 0.87 | 0.649 | 0.862 | 0.657 | 0.403 | 0.973 | 0.694 | 0.658 | 0.486 | 0.412
